Test results taken from ChEMBL document CHEMBL4118148, “Design, synthesis and cardiovascular evaluation of some aminoisopropanoloxy derivatives of xanthone” (Bioorg Med Chem, 2018).
Activity calls are given as the source filed them. The calls are words filed in the database; no cut-off is given here.

Experiments:
[1] = biological target: Adrenergic receptor alpha-1 (Rattus norvegicus) (UniProt P15823+P23944+P43140); assay: Displacement of [3H][…]prazosin from adrenergic alpha1 receptor in Wistar rat cortex at 10^-5 M incubated for 30 mins by microbeta liquid scintillation counting analysis
Rattus norvegicus [2] = assay: Cardiotoxicity in Wistar rat assessed as effect on heart rate at 5 mg/kg, iv measured after 5 mins (reference value: 323 to 374.5 bpm); type: toxicity, organism-based; conditions: in vivo
Rattus norvegicus [3] = assay: Hypotensive activity in normotensive Wistar rat assessed as diastolic blood pressure at 5 mg/kg, iv measured after 60 mins (reference value: 86.5 to 119.4 mmHg); type: functional
Rattus norvegicus [4] = assay: Hypotensive activity in normotensive Wistar rat assessed as diastolic blood pressure at 5 mg/kg, iv measured after 10 mins (reference value: 86.5 to 119.4 mmHg); type: functional
Rattus norvegicus [5] = assay: Hypotensive activity in normotensive Wistar rat assessed as diastolic blood pressure at 5 mg/kg, iv measured after 5 mins (reference value: 86.5 to 119.4 mmHg); type: functional
Rattus norvegicus [6] = assay: Cardiotoxicity in Wistar rat assessed as effect on PQ interval time at 5 mg/kg, iv measured after 1 min (reference value: 52 to 57 ms); type: toxicity, organism-based; conditions: in vivo
Rattus norvegicus [7] = assay: Hypotensive activity in normotensive Wistar rat assessed as systolic blood pressure at 5 mg/kg, iv measured after 5 mins (reference value: 119.2 to 148.6 mmHg); type: functional
Rattus norvegicus [8] = assay: Hypotensive activity in normotensive Wistar rat assessed as systolic blood pressure at 5 mg/kg, iv measured after 20 mins (reference value: 119.2 to 148.6 mmHg); type: functional
Rattus norvegicus [9] = assay: Cardiotoxicity in Wistar rat assessed as effect on PQ interval time at 5 mg/kg, iv measured after 15 mins (reference value: 52 to 57 ms); type: toxicity, organism-based; conditions: in vivo, 0.25 h
Rattus norvegicus [10] = assay: Cardiotoxicity in Wistar rat assessed as effect on QTC interval time at 5 mg/kg, iv measured after 5 mins (reference value: 136.7 to 146.2 ms); type: toxicity, organism-based; conditions: in vivo
Rattus norvegicus [11] = assay: Hypotensive activity in normotensive Wistar rat assessed as diastolic blood pressure at 5 mg/kg, iv measured after 30 mins (reference value: 86.5 to 119.4 mmHg); type: functional
Rattus norvegicus [12] = assay: Cardiotoxicity in Wistar rat assessed as effect on QT interval time at 5 mg/kg, iv measured after 1 min (reference value: 57.7 to 61 ms); type: toxicity, organism-based; conditions: in vivo
Rattus norvegicus [13] = assay: Hypotensive activity in normotensive Wistar rat assessed as diastolic blood pressure at 5 mg/kg, iv measured after 20 mins (reference value: 86.5 to 119.4 mmHg); type: functional
Rattus norvegicus [14] = assay: Cardiotoxicity in Wistar rat assessed as effect on QT interval time at 5 mg/kg, iv measured after 15 mins (reference value: 57.7 to 61 ms); type: toxicity, organism-based; conditions: in vivo, 0.25 h
[15] = biological target: Beta-1 adrenergic receptor (Rattus norvegicus, UniProt P18090); assay: Displacement of [3H]-CGP-12177 from adrenergic beta1 receptor in Wistar rat cortex incubated for 60 mins by microbeta liquid scintillation counting analysis
Beta-1 adrenergic receptor, sequence (P18090 whole entry): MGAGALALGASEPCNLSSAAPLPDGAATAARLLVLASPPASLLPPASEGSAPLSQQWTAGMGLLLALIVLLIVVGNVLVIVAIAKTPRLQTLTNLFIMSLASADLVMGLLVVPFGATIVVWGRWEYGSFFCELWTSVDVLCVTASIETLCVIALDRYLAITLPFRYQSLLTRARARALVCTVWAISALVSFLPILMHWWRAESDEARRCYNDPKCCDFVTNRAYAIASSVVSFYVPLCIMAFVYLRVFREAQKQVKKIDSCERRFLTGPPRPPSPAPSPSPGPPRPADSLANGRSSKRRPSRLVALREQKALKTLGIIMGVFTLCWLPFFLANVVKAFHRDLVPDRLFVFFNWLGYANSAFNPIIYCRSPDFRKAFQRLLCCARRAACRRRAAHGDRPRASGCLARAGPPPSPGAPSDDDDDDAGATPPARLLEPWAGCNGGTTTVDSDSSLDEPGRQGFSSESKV

Rattus norvegicus [16] = assay: Cardiotoxicity in Wistar rat assessed as effect on QRS interval time at 5 mg/kg, iv measured after 5 mins (reference value: 16.7 to 20.7 ms); type: toxicity, organism-based; conditions: in vivo
Rattus norvegicus [17] = assay: Hypotensive activity in normotensive Wistar rat assessed as systolic blood pressure at 5 mg/kg, iv measured after 30 mins (reference value: 119.2 to 148.6 mmHg); type: functional
Rattus norvegicus [18] = assay: Cardiotoxicity in Wistar rat assessed as effect on PQ interval time at 5 mg/kg, iv measured after 5 mins (reference value: 52 to 57 ms); type: toxicity, organism-based; conditions: in vivo
Rattus norvegicus [19] = assay: Cardiotoxicity in Wistar rat assessed as effect on heart rate at 5 mg/kg, iv measured after 15 mins (reference value: 323 to 374.5 bpm); type: toxicity, organism-based; conditions: in vivo, 0.25 h
Rattus norvegicus [20] = assay: In vivo inhibition of beta adrenoceptor in Wistar rat assessed as reduction in isoprenaline-induced tachycardia at 5 mg/kg, iv administered as single dose 10 mins prior to isoprenaline injection; type: functional, organism-based
Blood [21] = assay: Anti-aggregative activity in Wistar rat whole blood assessed as inhibition of collagen-induced aggregation preincubated for 3 mins followed by collagen induction measured for 6 mins; type: functional, tissue-based
Rattus norvegicus [22] = assay: Cardiotoxicity in Wistar rat assessed as effect on QT interval time at 5 mg/kg, iv measured after 5 mins (reference value: 57.7 to 61 ms); type: toxicity, organism-based; conditions: in vivo
Rattus norvegicus [23] = assay: Hypotensive activity in normotensive Wistar rat assessed as systolic blood pressure at 5 mg/kg, iv measured after 10 mins (reference value: 119.2 to 148.6 mmHg); type: functional
Rattus norvegicus [24] = assay: Cardiotoxicity in Wistar rat assessed as effect on QRS interval time at 5 mg/kg, iv measured after 1 min (reference value: 16.7 to 20.7 ms); type: toxicity, organism-based; conditions: in vivo
Rattus norvegicus [25] = assay: Hypotensive activity in normotensive Wistar rat assessed as reduction in systolic blood pressure administered iv measured after 60 mins; type: functional
Rattus norvegicus [26] = assay: Hypotensive activity in normotensive Wistar rat assessed as systolic blood pressure at 5 mg/kg, iv measured after 60 mins (reference value: 119.2 to 148.6 mmHg); type: functional
[27] = biological target: Adrenergic receptor alpha-2 (Rattus norvegicus) (UniProt P22086+P19328+P22909); assay: Displacement of [3H]-clonidine from adrenergic alpha2 receptor in Wistar rat cortex at 10^-5 M incubated for 25 mins by microbeta liquid scintillation counting analysis
Rattus norvegicus [28] = assay: Cardiotoxicity in Wistar rat assessed as effect on QRS interval time at 5 mg/kg, iv measured after 15 mins (reference value: 16.7 to 20.7 ms); type: toxicity, organism-based; conditions: in vivo, 0.25 h
Rattus norvegicus [29] = assay: Cardiotoxicity in Wistar rat assessed as effect on heart rate at 5 mg/kg, iv measured after 1 min (reference value: 323 to 374.5 bpm); type: toxicity, organism-based; conditions: in vivo
Rattus norvegicus [30] = assay: Cardiotoxicity in Wistar rat assessed as effect on QTC interval time at 5 mg/kg, iv measured after 1 min (reference value: 136.7 to 146.2 ms); type: toxicity, organism-based; conditions: in vivo
Rattus norvegicus [31] = assay: Cardiotoxicity in Wistar rat assessed as effect on QTC interval time at 5 mg/kg, iv measured after 15 mins (reference value: 136.7 to 146.2 ms); type: toxicity, organism-based; conditions: in vivo, 0.25 h
[32] = biological target: Beta-2 adrenergic receptor (Cavia porcellus, UniProt Q8K4Z4); assay: Antagonist activity at adrenergic beta2 receptor in isolated guinea pig trachea assessed as inhibition of isoprenaline-induced bronchodilation incubated for 20 mins; type: functional; conditions: read-out: pA2 (converted)
Beta-2 adrenergic receptor, sequence (Q8K4Z4 whole entry): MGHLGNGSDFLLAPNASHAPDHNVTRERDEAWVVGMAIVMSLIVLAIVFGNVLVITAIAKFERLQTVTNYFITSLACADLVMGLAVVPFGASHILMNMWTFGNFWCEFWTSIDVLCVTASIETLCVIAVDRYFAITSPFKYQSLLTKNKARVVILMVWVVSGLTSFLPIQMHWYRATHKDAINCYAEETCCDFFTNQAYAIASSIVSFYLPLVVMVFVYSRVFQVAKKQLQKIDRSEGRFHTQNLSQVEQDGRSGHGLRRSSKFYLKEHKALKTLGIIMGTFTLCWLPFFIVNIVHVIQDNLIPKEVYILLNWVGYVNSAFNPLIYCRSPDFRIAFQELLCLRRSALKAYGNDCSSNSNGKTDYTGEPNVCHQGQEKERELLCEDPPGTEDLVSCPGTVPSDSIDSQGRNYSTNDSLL

Rattus norvegicus [33] = assay: Antiarrhythmic activity in Wistar rat assessed as inhibition of adrenaline-induced premature ventricular extrasystoles administered iv 15 mins prior to adrenaline challenge; type: functional
Rattus norvegicus [34] = assay: In vivo inhibition of beta adrenoceptor in Wistar rat assessed as reduction in isoprenaline-induced tachycardia at 1 mg/kg, iv administered as single dose 10 mins prior to isoprenaline injection; type: functional, organism-based
Blood [35] = assay: Anti-aggregative activity in Wistar rat whole blood assessed as inhibition of collagen/adrenaline-induced aggregation up to 100 uM preincubated for 3 mins followed by collagen induction measured for 6 mins; type: functional, tissue-based
Blood [36] = assay: Anti-aggregative activity in Wistar rat whole blood assessed as inhibition of collagen-induced aggregation up to 100 uM preincubated for 3 mins followed by collagen induction measured for 6 mins; type: functional, tissue-based
Rattus norvegicus [37] = organism: Rattus norvegicus; assay: (§1) Inhibition of voltage gated calcium channel in Wistar rat aorta assessed as relaxation of KCl-precontracted aortic rings by measuring reduction in calcium entry in presence of phentolamine
[38] = as §1

**Q.** Which results are given for `Cc1cccc2c(=O)c3ccc(OCC(O)CNC(C)(C)C)cc3oc12.Cl` (racemic)?
**A.** Activity [1]: inactive; Activity (Rattus norvegicus [2]): 310 bpm; Activity (Rattus norvegicus [3]): 114 mmHg; Activity (Rattus norvegicus [4]): 125 mmHg; Activity (Rattus norvegicus [5]): 129.2 mmHg; Time (Rattus norvegicus [6]): 60.5 ms; Activity (Rattus norvegicus [7]): 166.6 mmHg; Activity (Rattus norvegicus [8]): 160 mmHg; Time (Rattus norvegicus [9]): 55.5 ms; Time (Rattus norvegicus [10]): 135.2 ms; Activity (Rattus norvegicus [11]): 123.8 mmHg; Time (Rattus norvegicus [12]): 59 ms; Activity (Rattus norvegicus [13]): 126 mmHg; Time (Rattus norvegicus [14]): 58.5 ms; IC50 [15]: 0.785 µM; Time (Rattus norvegicus [16]): 18.2 ms; Activity (Rattus norvegicus [17]): 155.8 mmHg; Time (Rattus norvegicus [18]): 59.5 ms; Activity (Rattus norvegicus [19]): 339.2 bpm; inhibition (Rattus norvegicus [20]): Active; IC50 (Blood [21]): 62.7 µM; inhibition (Blood [21]): Dose-dependent effect; Time (Rattus norvegicus [22]): 59.5 ms; Activity (Rattus norvegicus [23]): 159.2 mmHg; Time (Rattus norvegicus [24]): 18 ms; Activity (Rattus norvegicus [25]): inactive; Activity (Rattus norvegicus [26]): 144 mmHg; Activity [27]: inactive; Time (Rattus norvegicus [28]): 18.5 ms; Activity (Rattus norvegicus [29]): 337 bpm; Time (Rattus norvegicus [30]): 139.8 ms; Time (Rattus norvegicus [31]): 138.9 ms; Kb [32]: 0.655 µM

**Q.** Which ED50 (Rattus norvegicus [33]) does the source give for `COc1ccccc1OCCNCC(O)COc1cccc2[nH]c3ccccc3c12` (stereo unspecified) [CARVEDILOL] here?
**A.** 1.05 mg/kg

**Q.** What about the inhibition (Rattus norvegicus [34]) of the same compound?
**A.** Active

**Q.** What about the inhibition (Blood [35]) of the same compound?
**A.** inactive

**Q.** And the inhibition (Blood [36])?
**A.** inactive

**Q.** For `COc1ccc(CCN(C)CCCC(C#N)(c2ccc(OC)c(OC)c2)C(C)C)cc1OC` (stereo unspecified) [VERAPAMIL], which inhibition (Rattus norvegicus [37]) is on record?
**A.** Dose-dependent effect

**Q.** And the inhibition (Rattus norvegicus [37]; concentration not given here)?
**A.** 95%

**Q.** What about the IC50 [38] of the same compound?
**A.** 0.0329 µM

**Q.** With `CC(C)NCC(O)COc1cccc2ccccc12` (stereo unspecified) [PROPRANOLOL] as the compound, how does the ED50 (Rattus norvegicus [33]) read?
**A.** 0.36 mg/kg
